Source: patent US20230322789A1, “PYRAZOLOPYRIDAZINONE COMPOUND, AND PHARMACEUTICAL COMPOSITION AND USE THEREOF” (BroadenBio Co., Ltd., priority 2020, published 2023)

Legend:
Human Jurkat-E6-1 cells = test: Measurement of IL-2 secretion of Jurkat cells by ELISA; type: cell-based; conditions: Homo sapiens, Jurkat E6.1, anti-CD3/anti-CD28 stimulation 24 hours, read-out: Percentage of the amount of IL-2 secreted from compound treated/DMSO-treated cells; for activity at 3 µM: test compound 3.0 μM; for activity at 1 µM: test compound 1.0 μM
Method: 2. Measurement of IL-2 Secretion of Jurkat Cells by ELISA
Human Jurkat-E6-1 cells were incubated with various concentrations of test compounds for 30 minutes in a humidified incubator at 37° C. and […]. Cells were transferred to cell culture plates pre-coated with anti-human CD3 antibody, then soluble anti-human CD28 antibody was added, and cells were stimulated for 24 hours at 37° C. and 5% CO2 in a humidified incubator. The cell culture medium was collected by centrifugation, and was then transferred to a 96-well transparent microtiter plate (Thermo) pre-coated with anti-human IL-2 antibody, incubated at room temperature for 2 hours, and gently shaken, washed with washing buffer for 4 times, and then followed the ELISA MAX Deluxe Set Human IL-2 (BioLegend) kit procedure, used a microplate reader (Molecular Device, i3X) to read the GD value. The best standard curve was selected by the microplate reader application software, and the corresponding concentration was calculated according to the GD value of the standard. Results are expressed as a percentage of the amount of IL-2 secreted from compound-treated/DMSO-treated cells.

HPK1 = HPK1 (Homo sapiens (Human), UniProt Q92918); test: HPK1 kinase activity inhibition test (ADP-Glo, luminescence); type: biochemical; conditions: HPK1 5 nM, ATP 2 μM, read-out: IC50, inhibitory effects of compounds on HPK1 kinase activity
Sequence of HPK1 (Q92918 whole entry): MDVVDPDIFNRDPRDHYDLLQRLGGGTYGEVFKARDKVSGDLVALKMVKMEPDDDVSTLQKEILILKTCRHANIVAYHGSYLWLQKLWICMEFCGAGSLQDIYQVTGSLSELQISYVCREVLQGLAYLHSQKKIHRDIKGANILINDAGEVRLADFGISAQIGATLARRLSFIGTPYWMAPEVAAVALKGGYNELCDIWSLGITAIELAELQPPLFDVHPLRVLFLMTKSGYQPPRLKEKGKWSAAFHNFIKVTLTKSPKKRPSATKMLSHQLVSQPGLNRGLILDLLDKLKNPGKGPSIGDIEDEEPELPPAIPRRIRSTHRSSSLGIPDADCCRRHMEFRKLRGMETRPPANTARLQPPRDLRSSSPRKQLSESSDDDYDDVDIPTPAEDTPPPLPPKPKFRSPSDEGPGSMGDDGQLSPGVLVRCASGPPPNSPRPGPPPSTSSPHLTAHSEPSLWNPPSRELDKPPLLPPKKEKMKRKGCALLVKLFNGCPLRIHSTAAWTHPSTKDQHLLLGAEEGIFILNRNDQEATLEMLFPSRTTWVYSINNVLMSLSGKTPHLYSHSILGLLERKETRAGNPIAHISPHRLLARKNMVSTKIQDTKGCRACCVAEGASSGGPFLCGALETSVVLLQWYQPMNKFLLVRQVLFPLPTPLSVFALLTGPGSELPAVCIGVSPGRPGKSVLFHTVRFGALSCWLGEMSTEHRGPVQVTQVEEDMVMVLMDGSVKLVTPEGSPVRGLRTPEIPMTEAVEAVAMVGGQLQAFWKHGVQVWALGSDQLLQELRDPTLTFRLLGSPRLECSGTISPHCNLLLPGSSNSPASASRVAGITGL
Summary of the method: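 HPK1 autophosphorylation was run without added substrate. Kinase and compound were preincubated 10 min at 25° C., then ATP was added for 60 min at 25° C. ADP formed was detected by ADP-Glo luminescence, and IC50 was taken from a four-parameter nonlinear fit.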

| IC50 (HPK1) | Structure (SMILES) | activity at 3 µM (Human Jurkat-E6-1 cells) | activity at 1 µM (Human Jurkat-E6-1 cells) | activity at 0.33 µM (Human Jurkat-E6-1 cells; test compound 0.33 μM) |
| --- | --- | --- | --- | --- |
| ≤ 50 nM | COc1cccc(F)c1-n1nc2c(-c3ccc(N4CCC(C)(N(C)C)CC4)cc3)n[nH]c2cc1=O [Compound 147, 3-(4-(4-(dimethylamino)-4-methylpiperidin-1-yl)phenyl)-5-(2-fluoro-6-methoxyphenyl)-1H-pyrazolo[4,3-c]pyridazin-6(5H)-one] | 616% |  |  |
| ≤ 50 nM | CCc1cccc(F)c1-n1nc2c(-c3cccc(N4CCN(C)CC4)c3)n[nH]c2cc1=O [Compound 200, 5-(2-ethyl-6-fluorophenyl)-3-(3-(4-methylpiperazin-1-yl)phenyl)-1H-pyrazolo[4,3-c]pyridazin-6(5H)-one] | 286% |  |  |
| ≤ 50 nM | CCc1cccc(F)c1-n1nc2c(-c3ccc(N4CCN(CCO)CC4)cc3)n[nH]c2cc1=O [Compound 112, 5-(2-ethyl-6-fluorophenyl)-3-(4-(4-(2-hydroxyethyl)piperazin-1-yl)phenyl)-1H-pyrazolo[4,3-c]pyridazin-6(5H)-one] | 703% |  |  |
| ≤ 50 nM | Cc1cccc(F)c1-n1nc2c(-c3ccc(N4CCN(C)CC4)c(F)c3)n[nH]c2cc1=O [Compound 94] | 414% |  |  |
| 50 to 500 nM | COc1cccc(F)c1-n1nc2c(-c3cnn(C)c3)n[nH]c2cc1=O [Compound 21, 5-(2-fluoro-6-methoxyphenyl)-3-(1-methyl-1H-pyrazol-4-yl)-1H-pyrazolo[4,3-c]pyridazin-6(5H)-one] | 258% |  |  |
| 50 to 500 nM | COc1cccc(F)c1-n1nc2c(-c3cnn(C4CCN(C)CC4)c3)n[nH]c2cc1=O [Compound 20] |  | 329% |  |
| ≤ 50 nM | Cc1cc(C#N)cc(F)c1-n1nc2c(-c3ccc4c(c3)CN(C)CC4)n[nH]c2cc1=O [Compound 170, 3-fluoro-5-methyl-4-(3-(2-methyl-1,2,3,4-tetrahydroisoquinolin-7-yl)-6-oxo-1H-pyrazolo[4,3-c]pyridazin-5(6H)-yl)benzonitrile] |  | 279% |  |
| ≤ 50 nM | Cc1cccc(F)c1-n1nc2c(-c3ccc(N4CCN(C)C(C)(C)C4)cc3)n[nH]c2cc1=O [Compound 89, 5-(2-fluoro-6-methylphenyl)-3-(4-(3,3,4-trimethylpiperazin-1-yl)phenyl)-1H-pyrazolo[4,3-c]pyridazin-6(5H)-one] | 689% |  |  |
| ≤ 50 nM | Cc1cccc(F)c1-n1nc2c(-c3ccc(N4CCN5CCOC[C@H]5C4)cc3)n[nH]c2cc1=O [Compound 134, (R)-5-(2-fluoro-6-methylphenyl)-3-(4-(hexahydropyrazino[2,1-c][1,4]oxazin-8(1H)-yl)phenyl)-1H-pyrazolo[4,3-c]pyridazin-6(5H)-one] | 527% |  |  |
| ≤ 50 nM | COc1cc(F)cc(F)c1-n1nc2c(-c3ccc(N4CCN(C)CC4)cc3)n[nH]c2cc1=O [Compound 77, 5-(2,4-difluoro-6-methoxyphenyl)-3-(4-(4-methylpiperazin-1-yl)phenyl)-1H-pyrazolo[4,3-c]pyridazin-6(5H)-one] |  | 233% |  |
| 50 to 500 nM | COc1cc(-c2n[nH]c3cc(=O)n(-c4c(C)cccc4F)nc23)ccc1N1CCN(C)CC1 [Compound 14, 5-(2-fluoro-6-methylphenyl)-3-(3-methoxy-4-(4-methylpiperazin-1-yl)phenyl)-1H-pyrazolo[4,3-c]pyridazin-6(5H)-one] | 255% |  |  |
| 50 to 500 nM | Cc1cccc(F)c1-n1nc2c(-c3ccc(N4CCN(C5CC5)CC4)cc3)n[nH]c2cc1=O [Compound 58, 3-(4-(4-cyclopropylpiperazin-1-yl)phenyl)-5-(2-fluoro-6-methylphenyl)-1H-pyrazolo[4,3-c]pyridazin-6(5H)-one] | 233% |  |  |
| 500 to 2000 nM | COc1cc(N2CCN(C)CC2)ccc1-c1n[nH]c2cc(=O)n(-c3c(C)cccc3F)nc12 [Compound 16, 5-(2-fluoro-6-methylphenyl)-3-(2-methoxy-4-(4-methylpiperazin-1-yl)phenyl)-1H-pyrazolo[4,3-c]pyridazin-6(5H)-one] |  | 156% |  |
| ≤ 50 nM | CCc1cccc(F)c1-n1nc2c(-c3ccc4c(c3)CN(C)CC4)n[nH]c2cc1=O [Compound 160, 5-(2-ethyl-6-fluorophenyl)-3-(2-methyl-1,2,3,4-tetrahydroisoquinolin-7-yl)-1H-pyrazolo[4,3-c]pyridazin-6(5H)-one] | 354% |  |  |
| 50 to 500 nM | COc1cccc(F)c1-n1nc2c(-c3ccc(N4CCOCC4)cc3)n[nH]c2c(C)c1=O [Compound 155, 5-(2-fluoro-6-methoxyphenyl)-7-methyl-3-(4-morpholinophenyl)-1H-pyrazolo[4,3-c]pyridazin-6(5H)-one] | 435% |  |  |
| 50 to 500 nM | Cc1cccc(F)c1-n1nc2c(-c3ccc4c(c3)CN(C(C)CO)CC4)n[nH]c2cc1=O (centres unmarked) [Compound 165, 5-(2-fluoro-6-methylphenyl)-3-(2-(1-hydroxylprop-2-yl)-1,2,3,4-tetrahydroisoquinolin-7-yl)-1H-pyrazolo[4,3-c]pyridazin-6(5H)-one] |  | 181% |  |
| ≤ 50 nM | Cc1cccc(F)c1-n1nc2c(-c3ccc4c(c3)CCN(C3CNC3)C4)n[nH]c2cc1=O [Compound 193] | 169% |  |  |
| ≤ 50 nM | COc1cccc(F)c1-n1nc2c(-c3ccc(N4CCC(C)(N)CC4)cc3)n[nH]c2cc1=O [Compound 146, 3-(4-(4-amino-4-methylpiperidin-1-yl)phenyl)-5-(2-fluoro-6-methoxyphenyl)-1H-pyrazolo[4,3-c]pyridazin-6(5H)-one] | 537% |  |  |
| ≤ 50 nM | COc1cccc(F)c1-n1nc2c(-c3ccc(N4CCC(O)CC4)cc3)n[nH]c2cc1=O [Compound 139, 5-(2-fluoro-6-methoxyphenyl)-3-(4-(4-hydroxylpiperidin-1-yl)phenyl)-1H-pyrazolo[4,3-c]pyridazin-6(5H)-one] | 315% |  |  |
| ≤ 50 nM | CN1CCN(c2ccc(-c3n[nH]c4cc(=O)n(-c5cccc6c5OCO6)nc34)cc2)CC1 [Compound 76] | 561% |  |  |
| ≤ 50 nM | COc1cccc(F)c1-n1nc2c(-c3ccc(N4CCN(CC(C)(C)O)CC4)cc3)n[nH]c2cc1=O [Compound 115, 5-(2-fluoro-6-methoxyphenyl)-3-(4-(4-(2-hydroxyl-2-methylpropyl)piperazin-1-yl)phenyl)-1H-pyrazolo[4,3-c]pyridazin-6(5H)-one] | 542% |  |  |
| ≤ 50 nM | Cc1cccc(F)c1-n1nc2c(-c3ccc(N4CCN(C)C(CO)C4)nc3)n[nH]c2cc1=O (centres unmarked) [Compound 128, 5-(2-fluoro-6-methylphenyl)-3-(6-(3-(hydroxymethyl)-4-methylpiperazin-1-yl)pyrid-3-yl)-1H-pyrazolo[4,3-c]pyridazin-6(5H)-one] | 472% |  |  |
| 50 to 500 nM | Cc1cccc(F)c1-n1nc2c(-c3ccc(N4CCN(C)CC4)nc3)n[nH]c2cc1=O [Compound 11, 5-(2-fluoro-6-methylphenyl)-3-(6-(4-methylpiperazin-1-yl)pyrid-3-yl)-1H-pyrazolo[4,3-c]pyridazin-6(5H)-one] |  | 296% |  |
| ≤ 50 nM | Cc1cccc(F)c1-n1nc2c(-c3ccc4c(c3)CN(CCO)CC4)n[nH]c2cc1=O [Compound 162, 5-(2-fluoro-6-methylphenyl)-3-(2-(2-hydroxyethyl)-1,2,3,4-tetrahydroisoquinolin-7-yl)-1H-pyrazolo[4,3-c]pyridazin-6(5H)-one] | 586% |  |  |
| ≤ 50 nM | COc1cccc(F)c1-n1nc2c(-c3cc(N4CCN(C)CC4)ccc3F)n[nH]c2cc1=O [Compound 210, 3-(2-fluoro-5-(4-methylpiperazin-1-yl)phenyl)-5-(2-fluoro-6-methoxyphenyl)-1H-pyrazolo[4,3-c]pyridazin-6(5H)-one] |  | 298% |  |

| Structure (SMILES) | IC50 (HPK1) | activity at 3 µM (Human Jurkat-E6-1 cells) | activity at 1 µM (Human Jurkat-E6-1 cells) | activity at 0.33 µM (Human Jurkat-E6-1 cells; test compound 0.33 μM) |
| --- | --- | --- | --- | --- |
| COc1cccc(F)c1-n1nc2c(-c3cccc(N4CC5CCC(C4)N5C)c3)n[nH]c2cc1=O [Compound 202, 5-(2-fluoro-6-methoxyphenyl)-3-(3-(8-methyl-3,8-diazabicyclo[3.2.1]octan-3-yl)phenyl)-1H-pyrazolo[4,3-c]pyridazin-6(5H)-one] | ≤ 50 nM |  | 539% |  |
| COc1cccc(F)c1-n1nc2c(-c3ccc(C4=CCN(C)CC4)cc3)n[nH]c2cc1=O [Compound 23, 5-(2-fluoro-6-methoxyphenyl)-3-(4-(1-methyl-1,2,3,6-tetrahydro-pyridin-4-yl)phenyl)-1H-pyrazolo[4,3-c]pyridazin-6(5H)-one] | ≤ 50 nM |  |  | 379% |
| Cc1cccc(F)c1-n1nc2c(-c3ccc(N4CC5CCC(C4)N5C)cc3)n[nH]c2cc1=O [Compound 61, 5-(2-fluoro-6-methylphenyl)-3-(4-(8-methyl-3,8-diazabicyclo[3.2.1]octan-3-yl)phenyl)-1H-pyrazolo[4,3-c]pyridazin-6(5H)-one] | ≤ 50 nM | 635% |  |  |
